Laboratory results published in ChEMBL document CHEMBL1201862, “PubChem BioAssay data set” (2004).
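Cultured in 96-well plates, cells were exposed to test compound for 48 hours across five concentrations. GI50 marks 50% less growth.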 The source made the active and inactive calls. No stated cut-off is given here; in the data, active = GI50 up to about 1.1 µM and inactive = higher.

Experiments:
Assay in all cases: NCI tumour cell line growth inhibition, 48 h
ACHN = system: ACHN
SK-MEL-28 = system: SK-MEL-28
UACC-62 = system: UACC-62
HL-60 = system: HL-60
SR = system: SR
COLO 205 = system: COLO 205
HOP-92 = system: HOP-92
786-0 = system: 786-0
T47D = system: T47D
OVCAR-4 = system: OVCAR-4
M14 = system: M14
SK-MEL-5 = system: SK-MEL-5
A498 = system: A498
PC-3 = system: PC-3
SF-539 = system: SF-539
HCC 2998 = system: HCC 2998
EKVX = system: EKVX
HCT-15 = system: HCT-15
SN12C = system: SN12C

Structure (SMILES) | GI50 (ACHN) | GI50 (SK-MEL-28) | GI50 (UACC-62) | GI50 (HL-60) | GI50 (SR) | GI50 (COLO 205) | GI50 (HOP-92) | GI50 (786-0) | GI50 (T47D) | GI50 (OVCAR-4) | GI50 (M14) | GI50 (SK-MEL-5) | GI50 (A498) | GI50 (PC-3) | GI50 (SF-539) | GI50 (HCC 2998) | GI50 (EKVX) | GI50 (HCT-15) [µM] | GI50 (SN12C)
Cc1c(C(C)C)cc(OCCO)cc1C(C)C | 51.4 µM (inactive) | 87.9 µM (inactive) | 40.6 µM (inactive) | 23.1 µM (inactive) | 26.7 µM (inactive) | 34.8 µM (inactive) | 19.8 µM (inactive) | 24.4 µM (inactive) | 26.9 µM (inactive) | 33.5 µM (inactive) | 38.8 µM (inactive) | 17.6 µM (inactive) | 31.3 µM (inactive) | 30.8 µM (inactive) | 55.5 µM (inactive) | 55.6 µM (inactive) | 31 µM (inactive) | 35.6 | 30.2 µM (inactive)
N=C(N)N/N=C/c1cnn(C(=N)N)c1 | > 100 µM (inactive) | > 100 µM (inactive) | > 100 µM (inactive) | > 100 µM (inactive) | > 100 µM (inactive) | > 100 µM (inactive) | > 100 µM (inactive) | > 100 µM (inactive) | > 100 µM (inactive) | > 100 µM (inactive) | > 100 µM (inactive) | > 100 µM (inactive) | > 100 µM (inactive) | 31.4 µM (inactive) | > 100 µM (inactive) | > 100 µM (inactive) | 45.7 µM (inactive) | > 100 | 63.7 µM (inactive)
Cc1ccc2c(c1)C(C1Cc3c(C)cccc3C1=O)OC2=O (stereo unspecified) | > 100 µM (inactive) | > 100 µM (inactive) | > 100 µM (inactive) | > 100 µM (inactive) | 91.6 µM (inactive) | > 100 µM (inactive) | > 100 µM (inactive) | > 100 µM (inactive) | > 100 µM (inactive) | > 100 µM (inactive) | > 100 µM (inactive) | > 100 µM (inactive) | > 100 µM (inactive) | > 100 µM (inactive) | 95.5 µM (inactive) | > 100 µM (inactive) | > 100 µM (inactive) | 89.7 | > 100 µM (inactive)
C=CC/C(C(=O)OC)=C(/C(=O)OC)N(CCC)CCC | 86.9 µM (inactive) | > 100 µM (inactive) | > 100 µM (inactive) | 23 µM (inactive) | 16.4 µM (inactive) | 99.5 µM (inactive) | 64 µM (inactive) | > 100 µM (inactive) | > 100 µM (inactive) | > 100 µM (inactive) | > 100 µM (inactive) | > 100 µM (inactive) | > 100 µM (inactive) | > 100 µM (inactive) | > 100 µM (inactive) | > 100 µM (inactive) | 74.3 µM (inactive) | > 100 | > 100 µM (inactive)
Nc1nccc(Nc2ccc(S(N)(=O)=O)cc2)n1 | > 100 µM (inactive) | > 100 µM (inactive) | > 100 µM (inactive) | > 100 µM (inactive) | > 100 µM (inactive) | > 100 µM (inactive) | > 100 µM (inactive) | > 100 µM (inactive) | > 100 µM (inactive) | > 100 µM (inactive) | > 100 µM (inactive) | > 100 µM (inactive) | > 100 µM (inactive) | > 100 µM (inactive) | > 100 µM (inactive) | > 100 µM (inactive) | > 100 µM (inactive) | > 100 | > 100 µM (inactive)
CCCn1c2ccccc2c2ccc3c(c21)C(=O)C=CC3=O | 1.83 µM (inactive) | 2.2 µM (inactive) | 4.13 µM (inactive) | 0.938 µM (active) | 0.719 µM (active) | 2.39 µM (inactive) | 1.85 µM (inactive) | 1.84 µM (inactive) | 2 µM (inactive) | 1.88 µM (inactive) | 2.18 µM (inactive) | > 7.91 µM (inactive) | > 10 µM (inactive) | 3.54 µM (inactive) | > 4.8 µM (inactive) | > 9.68 µM (inactive) | > 5.32 µM (inactive) | 2.24 | 3.78 µM (inactive)
Cc1ccc(S(=O)(=O)OC2C3OC(C)(C)OC3OC2C(c2cc(O)c3c(c2O)C(=O)c2ccccc2C3=O)c2cc(O)c3c(c2O)C(=O)c2ccccc2C3=O)cc1 (stereo unspecified) | > 10 µM (inactive) | > 10 µM (inactive) | > 10 µM (inactive) | > 10 µM (inactive) | > 10 µM (inactive) | > 10 µM (inactive) | > 10 µM (inactive) | > 10 µM (inactive) | > 10 µM (inactive) | > 10 µM (inactive) | > 10 µM (inactive) | > 10 µM (inactive) | > 10 µM (inactive) | > 10 µM (inactive) | > 10 µM (inactive) | > 10 µM (inactive) | > 10 µM (inactive) | > 10 | > 10 µM (inactive)
Nc1nc(N)c(N=Nc2ccc([As](=O)(O)O)c(O)c2)c(N)n1 | 49 µM (inactive) | > 100 µM (inactive) | 31.5 µM (inactive) | 2.96 µM (inactive) | 0.834 µM (active) | 22 µM (inactive) | 35.3 µM (inactive) | 20 µM (inactive) | > 25.2 µM (inactive) | 32.1 µM (inactive) | 35.6 µM (inactive) | 20.3 µM (inactive) | 83.6 µM (inactive) | 22.7 µM (inactive) | 17.1 µM (inactive) | – | > 63.5 µM (inactive) | 37.6 | 12.1 µM (inactive)
CN(CCCNC(=O)c1c2ccc3ccccc3c2nn1C)CCCNC(=O)c1c2ccc3ccccc3c2nn1C | 11.5 µM (inactive) | 2.3 µM (inactive) | 1.87 µM (inactive) | 10.4 µM (inactive) | 3 µM (inactive) | 1.81 µM (inactive) | 3.21 µM (inactive) | 11.6 µM (inactive) | 7.62 µM (inactive) | 11.7 µM (inactive) | 2.05 µM (inactive) | 2.23 µM (inactive) | 6.9 µM (inactive) | 12.4 µM (inactive) | 6.24 µM (inactive) | 1.87 µM (inactive) | 9.14 µM (inactive) | 6.93 | 12.4 µM (inactive)
O=C1OC2(CCCCC2)C(Oc2ccc(Cl)cc2)=C1F | 45.4 µM (inactive) | 23.7 µM (inactive) | 22.1 µM (inactive) | 23.7 µM (inactive) | 33.5 µM (inactive) | 26.5 µM (inactive) | 20.4 µM (inactive) | 48.3 µM (inactive) | 37.2 µM (inactive) | – | 33 µM (inactive) | 12.9 µM (inactive) | 47.3 µM (inactive) | 42.8 µM (inactive) | > 100 µM (inactive) | 22.3 µM (inactive) | 38.2 µM (inactive) | – | 45.2 µM (inactive)
Cc1ccc2c(ccc3c[n+]4ccccc4c(C)c32)c1.[O-][Cl+3]([O-])([O-])[O-] | 6.7 µM (inactive) | 3.17 µM (inactive) | – | 11.7 µM (inactive) | 1.21 µM (inactive) | 1.32 µM (inactive) | 4.1 µM (inactive) | 2.51 µM (inactive) | 2.47 µM (inactive) | 2.07 µM (inactive) | 5.46 µM (inactive) | 1.1 µM (active) | 13.4 µM (inactive) | 0.904 µM (active) | 2.3 µM (inactive) | 2.77 µM (inactive) | 62.4 µM (inactive) | > 100 | 0.402 µM (active)
COC(=O)c1ccc(C(=O)NC(Cc2ccc(Oc3cc(CC(NC(=O)c4ccccc4C(=O)OC)C(=O)OC)ccc3OC)cc2)C(=O)OC)cc1 (stereo unspecified) | > 100 µM (inactive) | > 100 µM (inactive) | – | > 100 µM (inactive) | > 100 µM (inactive) | > 100 µM (inactive) | > 100 µM (inactive) | > 100 µM (inactive) | > 100 µM (inactive) | > 100 µM (inactive) | > 100 µM (inactive) | – | 72.6 µM (inactive) | > 100 µM (inactive) | 63.5 µM (inactive) | > 100 µM (inactive) | > 100 µM (inactive) | > 100 | > 100 µM (inactive)
CS(=O)(=O)NC12CCC(c3ccccc31)c1ccccc12 | > 100 µM (inactive) | > 100 µM (inactive) | > 100 µM (inactive) | > 100 µM (inactive) | > 100 µM (inactive) | > 100 µM (inactive) | > 100 µM (inactive) | > 100 µM (inactive) | > 100 µM (inactive) | > 100 µM (inactive) | > 100 µM (inactive) | > 100 µM (inactive) | > 100 µM (inactive) | > 100 µM (inactive) | > 100 µM (inactive) | – | > 100 µM (inactive) | > 100 | > 100 µM (inactive)
CCOC(=O)NC(C(C(=O)OCC)C(=O)OCC)(C(F)(F)F)C(F)(F)F | > 100 µM (inactive) | > 100 µM (inactive) | > 100 µM (inactive) | > 100 µM (inactive) | > 100 µM (inactive) | > 100 µM (inactive) | > 100 µM (inactive) | > 100 µM (inactive) | > 100 µM (inactive) | > 100 µM (inactive) | > 100 µM (inactive) | > 100 µM (inactive) | > 100 µM (inactive) | > 100 µM (inactive) | > 100 µM (inactive) | – | > 100 µM (inactive) | > 100 | > 100 µM (inactive)
C[C@]12CC(c3ccccc3O1)C(C(=O)Nc1nc(C34CC5CC(CC(C5)C3)C4)cs1)C(=O)N2 (stereo partly specified) | > 100 µM (inactive) | > 100 µM (inactive) | > 100 µM (inactive) | > 100 µM (inactive) | > 100 µM (inactive) | > 100 µM (inactive) | > 100 µM (inactive) | > 100 µM (inactive) | > 100 µM (inactive) | > 100 µM (inactive) | > 100 µM (inactive) | > 100 µM (inactive) | > 100 µM (inactive) | > 100 µM (inactive) | – | > 100 µM (inactive) | > 100 µM (inactive) | > 100 | > 100 µM (inactive)
